According to patent publication US20160368919A1, “NOVEL PYRIDINE PYRAZINONES AS BET-FAMILY BROMODOMAIN INHIBITORS” (Pfizer Inc., priority 2015, published 2016):

Tests used:
Assay type in all cases: cell-based
MM1.S cells = assay: MM1.S cell proliferation assay (CellTiter-Glo)
Protocol: (§1) MM1.S (dexamethasone sensitive) and OPM-2 cells were purchased from ATCC and maintained in RPMI-1640 medium with 10% fetal bovine serum at 37 degrees, 5% CO2. Cells were seeded at 10,000 cells/well in 100 uL medium. The following day compounds or control vehicle (DMSO) were added at indicated concentrations in 10 ul volume. Compound treated OPM-2 cells and MM1.S cell were analyzed for cell density at 72h and 96h, respectively, using CellTiter-Glo® (CTG) reagent (Promega). The CTG assay measures the amount of ATP present, which indicates the number of viable cells in culture.

[1] = test system: MYC, SOX2, involucrin and Keratin 14 expression in HCC2429 cells; assay: Biomarker analysis in HCC2429 cells (RT-PCR, Western blot)
Protocol: HCC2429 cells were plated into a 6-well plate (250,000 cells/well). Cells were treated with compounds or control vehicle (DMSO) at the indicated concentrations for 72 hrs. Cells were collected, washed in PBS, and split for western blot and RNA analysis.

HCC2429 cells = assay: NMC HCC2429 cell proliferation assay (CellTiter-Glo); conditions: HCC2429, CTG at 96h
Protocol: NMC HCC2429 Cell Proliferation Assay • HCC2429 cells were plated into a 96-well plate (10,000 cells/well). Compounds or control vehicle (DMSO) were added at indicated concentrations. Compound-treated HCC2429 cells were analyzed for cell density at 96h using CellTiter-Glo® (CTG) reagent (Promega).

OPM-2 cells = assay: OPM-2 cell proliferation assay (CellTiter-Glo)
Protocol: as §1

LnCaP cells, AR(+) = assay: CRPC cell proliferation assay (CellTiter-Glo), LnCaP; conditions: CTG at 96h
Protocol: (§2) Castrate-Resistant Prostate Cancer (CRPC) Cell Proliferation Assay • Cells were seeded into 96-well plates at 2,000-10,000 cells/well in 100 uL medium. Four AR(+) cell lines (LnCaP, C4-2 (parental), C4-2AR-WT and C4-2AR—F876L) and one AR(−) cell line (DU-145) were studied. Compound treated cells were analyzed for cell density at 96h, using CellTiter-Glo® (CTG) reagent (Promega).

[2] = test system: C4-2AR-F876L cells, AR(+); assay: CRPC cell proliferation assay (CellTiter-Glo), C4-2AR-F876L; conditions: CTG at 96h
Protocol: as §2

[3] = test system: CRPC cell lines (LnCaP, C4-2, C4-2AR-WT, C4-2AR-F876L, DU-145); assay: CRPC cell proliferation assay, summary over the cell lines
Protocol: Castrate-Resistant Prostate Cancer (CRPC) Cell Proliferation Assay • Cells were seeded into 96-well plates at 2,000-10,000 cells/well in 100 uL medium. Four AR(+) cell lines (LnCaP, C4-2 (parental), C4-2AR-WT and C4-2AR—F876L) and one AR(−) cell line (DU-145) were studied. Compound treated cells were analyzed for cell density at 96h, using CellTiter-Glo® (CTG) reagent (Promega). […] Example 10 and IBET-151 BET had submicromolar IC50 values in the AR(+) cell lines. The inhibitors maintained potency in C4-2 cells engineered to express wild type (WT) AR receptor (C4-2-AR-WT), as well as cells engineered to express the F876L mutation (C4-2-AR-F876L) that confers resistance to androgen receptor (AR) antagonists.

DU-145 cells, AR(−) = assay: CRPC cell proliferation assay (CellTiter-Glo), DU-145; conditions: CTG at 96h
Protocol: as §2

C4-2AR-WT cells, AR(+) = assay: CRPC cell proliferation assay (CellTiter-Glo), C4-2AR-WT; conditions: CTG at 96h
Protocol: as §2

[4] = test system: C4-2 (parental) cells, AR(+); assay: CRPC cell proliferation assay (CellTiter-Glo), C4-2; conditions: CTG at 96h
Protocol: as §2

[5] = HCC2429, Western blot, 72 hrs, concentration-dependent

| SMILES | IC50 (MM1.S cells; MM1.S, CTG at 96h) [nM] | inhibition of proliferation of MM1.S cells (MM1.S cells; dose dependent manner, FIG. 1.A) | mRNA expression of involucrin ([1]; HCC2429, RT-PCR, 72 hours, 50 nM, 200 nM and 500 nM, dose dependent) | MYC protein level [1, 5] | SOX2 protein level [1, 5] | IC50 (HCC2429 cells) [nM] | IC50 (OPM-2 cells; OPM-2, CTG at 72h) [nM] | inhibition of proliferation of OPM-2 cells (OPM-2 cells; dose dependent manner, FIG. 1.B) | Max % Inh (LnCaP cells, AR(+)) [%] | Max % Inh [2] [%] | activity on cell proliferation ([3]; short-term assay, compared with the BET inhibitors) | Max % Inh (DU-145 cells, AR(−)) [%] | Max % Inh (C4-2AR-WT cells, AR(+)) [%] | Max % Inh [4] [%] | IC50 (LnCaP cells, AR(+); Homo sapiens) [nM] | IC50 [2] [nM] | IC50 values in the AR(+) cell lines ([3]; AR(+) cell lines, CTG at 96h) | IC50 (DU-145 cells, AR(−); Homo sapiens) [nM] | IC50 (C4-2AR-WT cells, AR(+)) [nM] | IC50 [4] [nM] |
| --- | --- | --- | --- | --- | --- | --- | --- | --- | --- | --- | --- | --- | --- | --- | --- | --- | --- | --- | --- | --- |
| Cc1sc2c(c1C)C(c1ccc(Cl)cc1)=N[C@@H](CC(=O)OC(C)(C)C)c1nnc(C)n1-2 [JQ1(+)] | 11 | inhibited proliferation | increased | down-regulated | down-regulated | 44 | 9 | inhibited proliferation |  |  |  |  |  |  |  |  |  |  |  |  |
| CNC(=O)c1ccc(N2C(=S)N(c3ccc(C#N)c(C(F)(F)F)c3)C(=O)C2(C)C)cc1F [MDV3100, reference compound] |  |  |  |  |  |  |  |  | 43 | 44 | weaker activity | 23 | 39 | 33 |  |  |  |  |  |  |
| COc1cc2c(cc1-c1c(C)noc1C)ncc1[nH]c(=O)n([C@H](C)c3ccccn3)c12 [i-BET151, reference compound] |  |  |  |  |  |  |  |  | 78 | 90 |  | 74 | 92 | 90 | 400 | 470 | submicromolar | 1130 | 430 | 490 |
